Experimental data: US20200054633A1 (priority 2017, published 2020)

Legend:
[1] = Clinical study: treatment-emergent laboratory toxicities, ECG, vital signs; assay type: in vivo, human; settings: for Worst treatment-emergent toxicity: Glucose hyperglycemia Grade 3 / Worst treatment-emergent toxicity: ALT increase by factor Grade 3 / Worst treatment-emergent toxicity: ALT increase by factor Grade 4 / Worst treatment-emergent toxicity: AST increase by factor Grade 4 / Worst treatment-emergent toxicity: CPK Grade 3 / Worst treatment-emergent toxicity: CPK Grade 4 / Worst treatment-emergent toxicity: Cholesterol Grade 3 / Worst treatment-emergent toxicity: Hemoglobin - change from baseline Grade 3 / Worst treatment-emergent toxicity: Hyperkalemia Grade 3 / Worst treatment-emergent toxicity: Hyperkalemia Grade 4 / Worst treatment-emergent toxicity: Hypernatremia Grade 3 / Worst treatment-emergent toxicity: Hypernatremia Grade 4 / Worst treatment-emergent toxicity: Hypocalcemia Grade 4 / Worst treatment-emergent toxicity: Hypoglycemia Grade 3 / Worst treatment-emergent toxicity: Hypokalemia Grade 3 / Worst treatment-emergent toxicity: Hypokalemia Grade 4 / Worst treatment-emergent toxicity: Hypomagnesemia Grade 3 / Worst treatment-emergent toxicity: Hyponatremia Grade 3 / Worst treatment-emergent toxicity: Hypophosphatemia Grade 3 / Worst treatment-emergent toxicity: Neutrophils decrease Grade 3 / Worst treatment-emergent toxicity: Neutrophils decrease Grade 4 / Worst treatment-emergent toxicity: Urine RBC increased Grade 3 / Worst treatment-emergent toxicity: Urine WBC increased Grade 3 / Worst treatment-emergent toxicity: Urine glucose increased Grade 3 / Worst treatment-emergent toxicity: Urine protein increased Grade 3: OST placebo; for Worst treatment-emergent toxicity: ALT increase by factor Grade 3 / Worst treatment-emergent toxicity: ALT increase by factor Grade 4 / Worst treatment-emergent toxicity: AST increase by factor Grade 4 / Worst treatment-emergent toxicity: CPK Grade 3 / Worst treatment-emergent toxicity: CPK Grade 4 / Worst treatment-emergent toxicity: Cholesterol Grade 3 / Worst treatment-emergent toxicity: Hemoglobin - change from baseline Grade 3 / Worst treatment-emergent toxicity: Hyperkalemia Grade 3 / Worst treatment-emergent toxicity: Hyperkalemia Grade 4 / Worst treatment-emergent toxicity: Hypernatremia Grade 3 / Worst treatment-emergent toxicity: Hypernatremia Grade 4 / Worst treatment-emergent toxicity: Hypocalcemia Grade 4 / Worst treatment-emergent toxicity: Hypoglycemia Grade 3 / Worst treatment-emergent toxicity: Hypokalemia Grade 3 / Worst treatment-emergent toxicity: Hypokalemia Grade 4 / Worst treatment-emergent toxicity: Hypomagnesemia Grade 3 / Worst treatment-emergent toxicity: Hyponatremia Grade 3 / Worst treatment-emergent toxicity: Hypophosphatemia Grade 3 / Worst treatment-emergent toxicity: Neutrophils decrease Grade 3 / Worst treatment-emergent toxicity: Neutrophils decrease Grade 4 / Worst treatment-emergent toxicity: Urine RBC increased Grade 3 / Worst treatment-emergent toxicity: Urine WBC increased Grade 3 / Worst treatment-emergent toxicity: Urine glucose increased Grade 3 / Worst treatment-emergent toxicity: Urine protein increased Grade 3: Safety Set 74
[2] = Clinical study: study drug discontinuation and reasons; assay type: in vivo, human
From the text: Given the sizable difference between the FAS and the Safety Set, summary tables are provided for both analysis sets. Table 4 and Table 5 present a summary of subjects who completed or discontinued study drug and/or the study for the FAS and the Safety Set, respectively.

[3] = Cmpd (1) 300 mg + OST placebo, Full Analysis Set
[4] = Cmpd (1) 300 mg + OST placebo, Safety Set
[5] = Cmpd (1) 600 mg + OST placebo, Full Analysis Set
[6] = Cmpd (1) 600 mg + OST placebo, Safety Set

O=C(O)[C@H]1C2CCC(CC2)[C@@H]1Nc1nc(-c2c[nH]c3ncc(F)cc23)ncc1F [Compound (1), Pimodivir]
Worst treatment-emergent toxicity: Glucose hyperglycemia Grade 3 ([1]; 300 mg, N 73): 1 (1.4%) | Worst treatment-emergent toxicity: ALT increase by factor Grade 3 ([1]; 300 mg): 0 | Worst treatment-emergent toxicity: ALT increase by factor Grade 4 ([1]; 300 mg): 0 | Worst treatment-emergent toxicity: AST increase by factor Grade 4 ([1]; 300 mg): 0 | Worst treatment-emergent toxicity: CPK Grade 3 ([1]; 300 mg): 1 (1.4%) | Worst treatment-emergent toxicity: CPK Grade 4 ([1]; 300 mg): 0 | Worst treatment-emergent toxicity: Cholesterol Grade 3 ([1]; 300 mg): 0 | Worst treatment-emergent toxicity: Hemoglobin - change from baseline Grade 3 ([1]; 300 mg): 5 (7.1%) | Worst treatment-emergent toxicity: Hyperkalemia Grade 3 ([1]; 300 mg): 1 (1.4%) | Worst treatment-emergent toxicity: Hyperkalemia Grade 4 ([1]; 300 mg): 0 | Worst treatment-emergent toxicity: Hypernatremia Grade 3 ([1]; 300 mg): 0 | Worst treatment-emergent toxicity: Hypernatremia Grade 4 ([1]; 300 mg): 0 | Worst treatment-emergent toxicity: Hypocalcemia Grade 4 ([1]; 300 mg): 1 (1.4%) | Worst treatment-emergent toxicity: Hypoglycemia Grade 3 ([1]; 300 mg): 0 | Worst treatment-emergent toxicity: Hypokalemia Grade 3 ([1]; 300 mg): 0 | Worst treatment-emergent toxicity: Hypokalemia Grade 4 ([1]; 300 mg): 0 | Worst treatment-emergent toxicity: Hypomagnesemia Grade 3 ([1]; 300 mg): 1 (1.4%) | Worst treatment-emergent toxicity: Hyponatremia Grade 3 ([1]; 300 mg): 0 | Worst treatment-emergent toxicity: Hypophosphatemia Grade 3 ([1]; 300 mg): 2 (2.7%) | Worst treatment-emergent toxicity: Neutrophils decrease Grade 3 ([1]; 300 mg): 1 (1.4%) | Worst treatment-emergent toxicity: Neutrophils decrease Grade 4 ([1]; 300 mg): 0 | Worst treatment-emergent toxicity: Urine RBC increased Grade 3 ([1]; 300 mg): 3 (9.4%) | Worst treatment-emergent toxicity: Urine WBC increased Grade 3 ([1]; 300 mg): 0 | Worst treatment-emergent toxicity: Urine glucose increased Grade 3 ([1]; 300 mg): 1 (1.4%) | Worst treatment-emergent toxicity: Urine protein increased Grade 3 ([1]; 300 mg): 0 | Worst treatment-emergent toxicity: Glucose hyperglycemia Grade 3 ([1]; 600 mg, N 70): 0 | Worst treatment-emergent toxicity: ALT increase by factor Grade 3 ([1]; 600 mg): 1 | Worst treatment-emergent toxicity: ALT increase by factor Grade 4 ([1]; 600 mg): 1 | Worst treatment-emergent toxicity: AST increase by factor Grade 4 ([1]; 600 mg): 1 | Worst treatment-emergent toxicity: CPK Grade 3 ([1]; 600 mg): 2 | Worst treatment-emergent toxicity: CPK Grade 4 ([1]; 600 mg): 1 | Worst treatment-emergent toxicity: Cholesterol Grade 3 ([1]; 600 mg): 4 | Worst treatment-emergent toxicity: Hemoglobin - change from baseline Grade 3 ([1]; 600 mg): 3 | Worst treatment-emergent toxicity: Hyperkalemia Grade 3 ([1]; 600 mg): 1 | Worst treatment-emergent toxicity: Hyperkalemia Grade 4 ([1]; 600 mg): 2 | Worst treatment-emergent toxicity: Hypernatremia Grade 3 ([1]; 600 mg): 0 | Worst treatment-emergent toxicity: Hypernatremia Grade 4 ([1]; 600 mg): 0 | Worst treatment-emergent toxicity: Hypocalcemia Grade 4 ([1]; 600 mg): 0 | Worst treatment-emergent toxicity: Hypoglycemia Grade 3 ([1]; 600 mg): 2 | Worst treatment-emergent toxicity: Hypokalemia Grade 3 ([1]; 600 mg): 1 | Worst treatment-emergent toxicity: Hypokalemia Grade 4 ([1]; 600 mg): 1 | Worst treatment-emergent toxicity: Hypomagnesemia Grade 3 ([1]; 600 mg): 0 | Worst treatment-emergent toxicity: Hyponatremia Grade 3 ([1]; 600 mg): 0 | Worst treatment-emergent toxicity: Hypophosphatemia Grade 3 ([1]; 600 mg): 0 | Worst treatment-emergent toxicity: Neutrophils decrease Grade 3 ([1]; 600 mg): 4 | Worst treatment-emergent toxicity: Neutrophils decrease Grade 4 ([1]; 600 mg): 0 | Worst treatment-emergent toxicity: Urine RBC increased Grade 3 ([1]; 600 mg): 5 | Worst treatment-emergent toxicity: Urine WBC increased Grade 3 ([1]; 600 mg): 2 | Worst treatment-emergent toxicity: Urine glucose increased Grade 3 ([1]; 600 mg): 0 | Worst treatment-emergent toxicity: Urine protein increased Grade 3 ([1]; 600 mg): 2 | laboratory values, electrocardiograms, and vital signs ([1]; clinical study): No safety concerns were noted | Drug termination: Discontinued [2, 3]: 20.7% | Drug termination: Discontinued, Adverse event [2, 3]: (10.3%) | Drug termination: Discontinued ([2]; Cmpd (1) 300 mg + OST placebo, Full Analysis Set, listed as Cmpd (1)): (20.7%) | Drug termination: Discontinued [2, 4]: 14 (18.9%) | Drug termination: Discontinued, Adverse event [2, 4]: 7 (9.5%) | Drug termination: Discontinued [2, 5]: 14.0% | Drug termination: Discontinued, Adverse event [2, 5]: (5.3%) | Drug termination: Discontinued ([2]; Cmpd (1) 600 mg + OST placebo, Full Analysis Set, listed as Cmpd (1)): (14.0%) | Drug termination: Discontinued [2, 6]: 12 (16.2%) | Drug termination: Discontinued, Adverse event [2, 6]: 3 (4.1%)
